# From patent US10167269B2, “Cockroach attraction-aggregation substance, cockroach aggregation attractant and cockroach controlling agent” (Kyoto University, priority 2013, dated 2019)
# Tested on: cockroaches
# Test: biological test using the linear track olfactometer (attraction-aggregation activity)
# Type: in vivo, American cockroaches
# Text: The method for determining the activity of the cockroach attraction-aggregation substance is not particularly limited herein, and the activity may be determined by, for example, a biological test using a linear track olfactometer (FIG. 1).
# An olfactometer (linear track olfactometer) is typically an instrument used to conduct bioassays to observe the response of insects to volatiles. The instrument has a bifurcation at which air flow containing an attractant substance attracts the insect subjects (see, e.g., J. Jpn. For. Soc., 89(2), 2007, “An Olfactometer Testing the Olfactory Response of the Japanese Horntail Urocerus japonicus to Volatiles.”, 135-137, and Nogyo Kankyo Kenkyu Sosho, Vol. 17, “Nogyo Seitaikei no Hozen ni Muketa Seibutsu Kino no Katsuyo”, 108-134).
# A biological test with a linear track olfactometer will be specifically described below. In FIG. 1, air suction from the top 1 of the central tube allows air to enter from the tops (2a and 2b) of the right and left tubes, thereby air flows are generated from the both sides, flowing through the horizontal tube toward the top of the central tube. The left tube is the control side, and the right tube is the sample side. Insect subjects (7 to 10 day-old larvae) are placed at the bottom 4 of the central tube. Air is then slowly suctioned from the top of the central tube with a pump (2.5 L/min). The insect subjects are allowed to freely move for 5 minutes at 25±1° C. at a relative humidity of 40 to 60% in total darkness. The numbers of the insect subjects that have moved to the control side and to the sample side are counted. The excess proportion index (EPI) is calculated by the following equation: EPI=(NS−NC)/(NS+NC) (where NS is the number of the insect subjects that have moved to the sample side; and NC is the number of the insect subjects that have moved to the control side).
# An EPI closer to 1 indicates higher attraction-aggregation activity on cockroaches.
# In the examples, the attraction-aggregation activity on cockroaches was determined by a biological test using the above-described linear track olfactometer (FIG. 1).
# [1] = Test Example 5, compounds isolated from frass in Example 24
# [2] = Test Examples 2 and 3, doses ranging from 10^-3 pg to 10^3 pg
# [3] = Test Examples 1 and 4, doses ranging from 10^-3 pg to 10^6 pg, 7 to 10 day-old larvae, 5 minutes
compound,measurement,setting,value
"Cc1ccc2c(c1O)C(=O)O[C@H](C)[C@H]2C (relative stereo) [PLD-A, (trans)-3,4-dihydro-8-hydroxy-3,4,7-trimethyl-1H-2-benzopyran-1-one]",attraction-aggregation activity on cockroaches,[1],high attraction-aggregation activity
"Cc1ccc2c(c1O)C(=O)O[C@@H](C)[C@H]2C (relative stereo) [PLD-B, (cis)-3,4-dihydro-8-hydroxy-3,4,7-trimethyl-1H-2-benzopyran-1-one]",attraction-aggregation activity on cockroaches,[1],high attraction-aggregation activity
"CC[C@H]1OC(=O)c2c(ccc(C)c2O)[C@@H]1C (relative stereo) [PLD-C, (trans)-3,4-dihydro-8-hydroxy-4,7-dimethyl-3-ethyl-1H-2-benzopyran-1-one]",attraction-aggregation activity on cockroaches,[1],high attraction-aggregation activity
"CC[C@@H]1OC(=O)c2c(ccc(C)c2O)[C@@H]1C (relative stereo) [PLD-D, (cis)-3,4-dihydro-8-hydroxy-4,7-dimethyl-3-ethyl-1H-2-benzopyran-1-one]",attraction-aggregation activity on cockroaches,[1],high attraction-aggregation activity
"CCC1Cc2cc(C)c(C)c(OC)c2C(=O)O1 (stereo not drawn) [Comparative Example 1, reference compound]",attraction-aggregation activity on cockroaches,"Test Example 1, even at a dose of 10^6 pg",no activity
"CCC1Cc2ccc(C)c(O)c2C(=O)O1 (stereo not drawn) [Example 3, 3,4-dihydro-8-hydroxy-3-ethyl-7-methyl-1H-2-benzopyran-1-one]",attraction-aggregation activity on cockroaches,[2],high attraction-aggregation activity
"CCC1Cc2c(C)cc(C)c(O)c2C(=O)O1 (stereo not drawn) [Example 4, 3,4-dihydro-8-hydroxy-3-ethyl-5,7-dimethyl-1H-2-benzopyran-1-one]",attraction-aggregation activity on cockroaches,[2],high attraction-aggregation activity
"CCC1Cc2cc(C)c(C)c(O)c2C(=O)O1 (stereo not drawn) [Example 5, 3,4-dihydro-8-hydroxy-3-ethyl-6,7-dimethyl-1H-2-benzopyran-1-one]",EPI value,"Test Example 1, dose 10^2 pg, EPI=(NS-NC)/(NS+NC)",about 0.5
same,attraction-aggregation activity on cockroaches,[3],high attraction-aggregation activity
"Cc1ccc2c(c1O)C(=O)OC1CCCC21 (stereo not drawn) [Example 17, 2,3,3a,9b-tetrahydro-6-hydroxy-7-methyl-cyclopenta[c][2]benzopyran-5(1H)-one]",attraction-aggregation activity on cockroaches,[3],showed attraction-aggregation activity
"Cc1ccc2c(c1O)C(=O)OC2 [Example 18, 7-hydroxy-6-methyl-1(3H)-isobenzofuranone]",attraction-aggregation activity on cockroaches,[3],showed attraction-aggregation activity
"CC1Cc2cccc(O)c2C(=O)O1 (stereo not drawn) [Example 23, mellein]",attraction-aggregation activity on cockroaches,[3],high attraction-aggregation activity
"CCC(C)C1Cc2c(C)cc(C)c(O)c2C(=O)O1 (stereo not drawn) [PLD-E, 3,4-dihydro-8-hydroxy-3-(1-methylpropyl)-5,7-dimethyl-1H-2-benzopyran-1-one]",attraction-aggregation activity on cockroaches,[1],high attraction-aggregation activity
"CCCC(C)C1Cc2c(C)cc(C)c(O)c2C(=O)O1 (stereo not drawn) [PLD-F, 3,4-dihydro-8-hydroxy-3-(1-methylbutyl)-5,7-dimethyl-1H-2-benzopyran-1-one]",attraction-aggregation activity on cockroaches,[1],high attraction-aggregation activity
"Cc1ccc2c(c1O)C(=O)OC(C)C2 (stereo not drawn) [step 1-4 of Example 1, 3,4-dihydro-8-hydroxy-3,7-dimethyl-1H-2-benzopyran-1-one]",attraction-aggregation activity on cockroaches,[2],high attraction-aggregation activity
